The values that follow come from patent US5843889A, “Glycopeptide antibiotic derivatives” (Eli Lilly and Company, priority 1997, dated 1998).

Assay [1] has as its system vancomycin-susceptibie enterococci (Enterococcus faecium and Enterococcus faecalis). Put plainly: mean geometric MIC, broth micro-dilution. The assay is classed as cell-based. The note with it: 24-hour incubation.
Assay [2] concerns Haemophilus influenzae RD. Put plainly: MIC, standard broth micro-dilution assay. The assay is classed as cell-based. How it is done:
(§1) The MIC's were determined using a standard broth micro-dilution assay.
(In broth dilution the organism is exposed to a series of concentrations in liquid medium.)

Assay [3] concerns Staphylococcus haemolyticus 105. In words: MIC, standard broth micro-dilution assay. The assay is classed as cell-based. Here is the method:
as §1

The subject of assay [4] is Staphylococcus aureus 491. In words: MIC, standard broth micro-dilution assay. The assay is classed as cell-based. How it is done:
as §1

Assay [5] concerns Staphylococcus haemolyticus 415. In words: MIC, standard broth micro-dilution assay. The assay is classed as cell-based. How it is done:
as §1

For assay [6], the system named is Entercoccus faecium 180. In words: MIC, standard broth micro-dilution assay. The assay is classed as cell-based. Here is the method: as §1
Assay [7] concerns Staphylococcus aureus 447. Put plainly: MIC, standard broth micro-dilution assay. The assay is classed as cell-based. How it is done: as §1
In assay [8] the test system is Staphylococcus epidermidis 270. Put plainly: MIC, standard broth micro-dilution assay. The assay is classed as cell-based. Here is the method: as §1
Assay [9] deals with Staphylococcus aureus 446. In words: MIC, standard broth micro-dilution assay. The assay is classed as cell-based. Here is the method: as §1
For assay [10], the system named is vancomycin-resistant enterococci (Enterococcus faecium and Enterococcus faecalis). In words: mean geometric MIC, broth micro-dilution. The note with it: 24-hour incubation. The assay is classed as cell-based.
Assay [11] relates to Streptococcus pneumoniae. Put plainly: ED50 in experimentally infected mice. The assay is classed as in vivo. The note with it: mice infected with Streptococcus pneumoniae, two doses.
The subject of assay [12] is Entercoccus faecalis 276. In words: MIC, standard broth micro-dilution assay. The assay is classed as cell-based. Here is the method:
(§2) The formula I compounds have in vitro and in vivo activity against Gram-positive pathogenic bacteria. The MIC's were determined using a standard broth micro-dilution assay.

The subject of assay [13] is Entercoccus gallinarum 245. In words: MIC, standard broth micro-dilution assay. The assay is classed as cell-based. Here is the method: as §2
The test system of assay [14] is Entercoccus faecalis 2041. Put plainly: MIC, standard broth micro-dilution assay. The assay is classed as cell-based. How it is done:
as §2

Assay [15] deals with Streptococcus pyogenes. In words: ED50 in experimentally infected mice. The assay is classed as in vivo. The note with it: mice infected with Streptococcus pyogenes, two doses.
The test system of assay [16] is Stapylococcus aureus. In words: ED50 in experimentally infected mice. The assay is classed as in vivo. The note with it: mice infected with Stapylococcus aureus, two doses.

≈ marks a conversion by molar mass, not a printed value.

Take `CNC(CC(C)C)C(=O)NC1C(=O)NC(CC(N)=O)C(=O)NC2C(=O)NC3C(=O)NC(C(=O)NC(C(=O)O)c4cc(O)cc(O)c4-c4cc3ccc4O)C(OC3CC(C)(N)C(O)C(C)O3)c3ccc(c(Cl)c3)Oc3cc2cc(c3OC2OC(CO)C(O)C(O)C2OC2CC(C)(NCc3cccc4c([N+](=O)[O-])cccc34)C(O)C(C)O2)Oc2ccc(cc2Cl)C1O` (stereo not drawn) [Compound 25, 5-nitro-1-naphthylmethyl]: the “mean geometric MIC, Vancomycin Sensitive Strains” value in [1] came to 0.22 µg/mL. For the same compound, the MIC in assay [2] is 32 µg/mL (≈ 18 µM); in assay [3] it was 1 µg/mL (≈ 0.563 µM); in assay [4], 0.125 µg/mL (≈ 0.0703 µM); in assay [5], 32 µg/mL (≈ 18 µM); in assay [6], 0.5 µg/mL (≈ 0.281 µM); in [7] it was 0.25 µg/mL (≈ 0.141 µM). In addition, the MIC is 0.5 µg/mL (≈ 0.281 µM) in assay [8]; 0.5 µg/mL (≈ 0.281 µM) in [9]; 0.25 µg/mL (≈ 0.141 µM) in assay [12]; not above 0.06 µg/mL in [13]; 0.25 µg/mL (≈ 0.141 µM) in [14]. Moreover, the “mean geometric MIC, Vancomycin Resistant Strains” value in assay [10] turned out to be 4.0 µg/mL. Further, the ED50 is given as 0.088 mg/kg/2 in assay [11], 0.087 mg/kg/2 in [15] and 0.16 mg/kg/2 in [16].

Turning to `CNC(CC(C)C)C(=O)NC1C(=O)NC(CC(N)=O)C(=O)NC2C(=O)NC3C(=O)NC(C(=O)NC(C(=O)O)c4cc(O)cc(O)c4-c4cc3ccc4O)C(OC3CC(C)(N)C(O)C(C)O3)c3ccc(c(Cl)c3)Oc3cc2cc(c3OC2OC(CO)C(O)C(O)C2OC2CC(C)(NCc3cccc(Oc4cccc(C(F)(F)F)c4)c3)C(O)C(C)O2)Oc2ccc(cc2Cl)C1O` (stereo not drawn) [Compound 111], in assay [1], the “mean geometric MIC, Vancomycin Sensitive Strains” value came to 0.054 µg/mL. Also, the “mean geometric MIC, Vancomycin Resistant Strains” value in assay [10] was determined as 0.84 µg/mL. Also, the MIC in assay [12] was 0.5 µg/mL (≈ 0.271 µM); in assay [13], 4 µg/mL (≈ 2.17 µM); in assay [14], not above 0.06 µg/mL.
